In patent US20050197350A1, “Novel quinoline, tetrahydroquinazoline, and pyrimidine derivatives and methods of treatment related to the use thereof” (TAISHO PHARMACEUTICAL CO., LTD., priority 2003, published 2005) one finds class data, which are given here for 33 molecules.

This experiment has as its system MCH receptors. The experiment can be described thus: MCH receptor activity class (method not given).
[1] abbreviates: class by percent of control at 10^-7 M or IC50.
The mark [2] stands for this setting: MCH receptor, class by percent of control at 10^-7 M or IC50.
The mark [3] stands for this setting: class by percent of control at 10^−7 M or IC50.
[4] abbreviates: class 1-3 by percent of control at 10^-7 M or IC50.

As to `COc1ccc(F)cc1CNC[C@H]1CC[C@@H](Nc2nccc(N(C)C)n2)CC1` [compound 1294], the class under setting [1] is 3 (Class 3 The value of percent of control at 10^−7 M was more than 60% or the value of IC50 was more than 200 nM.).
Turning to `COc1ccc(NC(=S)N[C@H]2CC[C@@H](Nc3nc4c(c(N(C)C)n3)CCCC4)CC2)cc1OC` [compound 1746, N-(3,4-dimethoxyphenyl)-N′-(cis-4-{[4-(dimethylamino)-5,6,7,8-tetrahydroquinazolin-2-yl]amino}cyclohexyl)thiourea], under setting [1], the class is 1 (Class 1: The value of percent of control at 10^−7 M was less than 40% or the value of IC50 was less than 50 nM.).
`CN(C)c1nc(N[C@H]2CC[C@@H](NC(=S)Nc3ccc([N+](=O)[O-])cc3)CC2)nc2c1CCCC2` [compound 1953]: under setting [2], the class is on record as 3 (Class 3 The value of percent of control at 10^−7 M was more than 60% or the value of IC50 was more than 200 nM.).
`CN(C)c1cc(N[C@H]2CC[C@@H](CNC(=O)c3ccc(F)c(F)c3)CC2)nc2ccccc12` [compound 160, N-[(cis-4-{[4-(dimethylamino)quinolin-2-yl]amino}cyclohexyl)methyl]-3,4-difluorobenzamide]: the class under setting [2] was 3 (Class 3 The value of percent of control at 10^−7 M was more than 60% or the value of IC50 was more than 200 nM.).
Regarding `CCOc1ccc(C(=O)N[C@H]2CC[C@@H](Nc3ncc(C)c(N(C)C)n3)CC2)cc1` [compound 2921, N-(cis-4-{[4-(dimethylamino)-5-methylpyrimidin-2-yl]amino}cyclohexyl)-4-ethoxybenzamide], the class under setting [3] was 2 (Class 2: The value of percent of control at 10^−7 M was from 40% to 60% or the value of IC′50 was from 50 nM to 200 nM.).
`COc1cc(CNC[C@H]2CC[C@@H](Nc3nccc(N(C)C)n3)CC2)cc(OC)c1` [compound 1259]: the class under setting [1] was 3 (Class 3 The value of percent of control at 10^−7 M was more than 60% or the value of IC50 was more than 200 nM.).
As to `CN(C)c1cc(N[C@H]2CC[C@@H](NC(=O)C3CCCC3)CC2)nc2ccccc12` [compound 125], the class under setting [2] is listed as 3 (Class 3 The value of percent of control at 10^−7 M was more than 60% or the value of IC50 was more than 200 nM.).
For `Cc1cc(C(=O)NC[C@H]2CC[C@@H](Nc3nc4c(c(N(C)C)n3)CCCC4)CC2)c(C(F)(F)F)o1` [compound 632], under setting [1], the class was 1 (Class 1: The value of percent of control at 10^−7 M was less than 40% or the value of IC50 was less than 50 nM.).
The same measure, in the same setting: the figure for `CN(C)c1ccnc(NC2CCC(NC(=O)OCc3ccc([N+](=O)[O-])cc3)CC2)n1` (stereo not drawn) [compound 274] is 3 (Class 3 The value of percent of control at 10^−7 M was more than 60% or the value of IC50 was more than 200 nM.); for `COc1cccc(CNC(=S)N[C@H]2CC[C@@H](Nc3nc4c(c(N(C)C)n3)CCCC4)CC2)c1OC` [compound 1768] it is 3 (Class 3 The value of percent of control at 10^−7 M was more than 60% or the value of IC50 was more than 200 nM.); for `CN(C)c1nc(N[C@H]2CC[C@@H](CNCc3ccccc3SC(F)(F)F)CC2)nc2c1CCCC2` [compound 1407] it is 3 (Class 3 The value of percent of control at 10^−7 M was more than 60% or the value of IC50 was more than 200 nM.).
`CN(C)c1nc(N[C@H]2CC[C@@H](NC(=O)Cc3c[nH]c4ccccc34)CC2)nc2c1CCCC2` [compound 986, N-(cis-4-{[4-(diniethylamino)-5,6,7,8-tetrahydroquinazolin-2-yl]amino}cyclohexyl)-2-(1H-indol-3-yl)acetamide]: the class (activity class per percent of control at 10^-7 M or IC50) is given as 1 (Class 1: The value of percent of control at 10^−7 M was less than 40% or the value of IC50 was less than 50 nM.).
As to `CN(C)c1cc(N[C@H]2CC[C@@H](NC(=O)c3ccc([N+](=O)[O-])s3)CC2)nc2ccccc12` [compound 688, N-(cis-4-{[4-(dimethylamino)quinolin-2-yl]amino}cyclohexyl)-5-nitrothiophene-2-carboxamide], the class under setting [1] is 1 (Class 1: The value of percent of control at 10^−7 M was less than 40% or the value of IC50 was less than 50 nM.).
The same measure, in the same setting: the figure for `CN(C)c1ccnc(N[C@H]2CC[C@@H](NC(=O)c3cc(C(C)(C)C)nn3Cc3ccc(Cl)cc3Cl)CC2)n1` [compound 360, 3-tert-butyl-1-(2,4-dichlorobenzyl)-N-(cis-4-{[4-(dimethylamino)pyrimidin-2-yl]amino}cyclohexyl)-1H-pyrazole-5-carboxamide] is 2 (Class 2: The value of percent of control at 10^−7 M was from 40% to 60% or the value of IC′50 was from 50 nM to 200 nM.); for `Cc1ccc(Cl)c(NC(=O)N[C@H]2CC[C@@H](Nc3nc4c(c(N(C)C)n3)CCCC4)CC2)c1` [compound 1856] it is 3 (Class 3 The value of percent of control at 10^−7 M was more than 60% or the value of IC50 was more than 200 nM.); for `Cc1cccc(NC(=O)N[C@H]2CC[C@@H](Nc3nccc(N(C)C)n3)CC2)c1C` [compound 2216] it is 3 (Class 3 The value of percent of control at 10^−7 M was more than 60% or the value of IC50 was more than 200 nM.).
Still for that read-out and setting: the figure for `CN(C)c1ccnc(N[C@H]2CC[C@@H](NC(=O)c3ccccc3Cc3ccccc3)CC2)n1` [compound 824] is 3 (Class 3 The value of percent of control at 10^−7 M was more than 60% or the value of IC50 was more than 200 nM.).
With `Cc1cnc(NC[C@H]2CC[C@@H](NC(=O)c3ccc(Cl)c(Cl)c3)CC2)nc1N(C)C` [compound 2729, 3,4-dichloro-N-[cis-4-({[4-(dimethylamino)-5-methylpyrimidin-2-yl]amino}methyl)cyclohexyl]benzamide], the class under setting [3] is reported as 3 (Class 3 The value of percent of control at 10^−7 M was more than 60% or the value of IC50 was more than 200 nM.).
As for `Cc1cc(C)c(CNC[C@H]2CC[C@@H](Nc3cc(N(C)C)c4ccccc4n3)CC2)c(C)c1` [compound 1181], under setting [1], the class was 3 (Class 3 The value of percent of control at 10^−7 M was more than 60% or the value of IC50 was more than 200 nM.).
`CN(C)c1ccnc(N[C@H]2CC[C@@H](NCc3ccc(F)c(Br)c3)CC2)n1` [compound 1225]: under setting [1], the class is listed as 3 (Class 3 The value of percent of control at 10^−7 M was more than 60% or the value of IC50 was more than 200 nM.).
As to `Cc1nc(N[C@H]2CC[C@@H](NCc3cccc(OC(F)(F)F)c3)CC2)nc(N(C)C)c1C` [compound 2865], the class under setting [3] is 3 (Class 3 The value of percent of control at 10^−7 M was more than 60% or the value of IC50 was more than 200 nM.).
Regarding `COc1cccc(C(=O)N[C@H]2CC[C@@H](Nc3ncc(C)c(N(C)C)n3)CC2)c1` [compound 2938, N-(cis-4-{[4-(dimethylamino)-5-methylpyrimidin-2-yl]amino}cyclohexyl)-3-methoxybenzamide], the class under setting [3] is listed as 1 (Class 1: The value of percent of control at 10^−7 M was less than 40% or the value of IC50 was less than 50 nM.).
In the case of `CN(C)c1ccnc(N[C@H]2CC[C@@H](NC(=O)c3ccccc3OC(F)(F)F)CC2)n1` [compound 336], the class under setting [1] is 3 (Class 3 The value of percent of control at 10^−7 M was more than 60% or the value of IC50 was more than 200 nM.).
The same measure, in the same setting: the figure for `COc1cc(CN[C@H]2CC[C@@H](Nc3nc4c(c(N(C)C)n3)CCCC4)CC2)cc(OC)c1O` [compound 1337] is 2 (Class 2: The value of percent of control at 10^−7 M was from 40% to 60% or the value of IC′50 was from 50 nM to 200 nM.).
For the molecule `Cc1cc(N(C)C)nc(N[C@H]2CC[C@@H](NC(=O)c3cccc(C#N)c3)CC2)n1` [compound 2957, 3-cyano-N-(cis-4-{[4-(dimethylamino)-6-methylpyrimidin-2-yl]amino}cyclohexyl)benzamide], the class under setting [3] is 1 (Class 1: The value of percent of control at 10^−7 M was less than 40% or the value of IC50 was less than 50 nM.).
In the case of `CN(C)c1cc(N[C@H]2CC[C@@H](NC(=O)c3cc(C(F)(F)F)cc(C(F)(F)F)c3)CC2)nc2ccccc12` [compound 78, N-(cis-4-{[4-(dimethylamino)quinolin-2-yl]amino}cyclohexyl)-3,5-bis(trifluoromethyl)benzamide], under setting [2], the class was 2 (Class 2: The value of percent of control at 10^−7 M was from 40% to 60% or the value of IC′50 was from 50 nM to 200 nM.).
Take `COc1cc(CNC(=O)[C@H]2CC[C@@H](Nc3nc(C)cc(N(C)C)n3)CC2)cc(OC)c1` [compound 2811, cis-N-(3,5-dimethoxybenzyl)-4-{[4-(dimethylamino)-6-methylpyrimidin-2-yl]amino}cyclohexanecarboxamide]: under setting [3], the class is 1 (Class 1: The value of percent of control at 10^−7 M was less than 40% or the value of IC50 was less than 50 nM.).
Regarding `COc1ccc(CNC[C@H]2CC[C@@H](Nc3nccc(N(C)C)n3)CC2)cc1` [compound 1262], the class under setting [1] is reported as 3 (Class 3 The value of percent of control at 10^−7 M was more than 60% or the value of IC50 was more than 200 nM.).
As to `CN(C)c1nc(N[C@H]2CC[C@@H](NC(=O)c3ccc(F)c(F)c3F)CC2)nc2c1CCCC2` [compound 560], the class under setting [4] was 3 (Class 3 The value of percent of control at 10^−7 M was more than 60% or the value of IC50 was more than 200 nM.).
On to `Cc1cc(C(=O)N[C@H]2CC[C@@H](Nc3cc(N(C)C)c4ccccc4n3)CC2)c(C(F)(F)F)o1` [compound 70], for which the class under setting [2] is on record as 3 (Class 3 The value of percent of control at 10^−7 M was more than 60% or the value of IC50 was more than 200 nM.).
Regarding `CN(C)c1ccnc(N[C@H]2CC[C@@H](CNC(=O)c3ccc(-c4ccccc4)cc3)CC2)n1` [compound 437], under setting [4], the class was 3 (Class 3 The value of percent of control at 10^−7 M was more than 60% or the value of IC50 was more than 200 nM.).
Turning to `CN(C)c1cc(N[C@H]2CC[C@@H](NC(=O)NC3C[C@H]3c3ccccc3)CC2)nc2ccccc12` (stereo partly drawn) [compound 2131], the class under setting [1] is given as 3 (Class 3 The value of percent of control at 10^−7 M was more than 60% or the value of IC50 was more than 200 nM.).
On the same count and under the same terms, as for `CN(C)c1nc(N[C@H]2CC[C@@H](NC(=O)NCc3ccc(Cl)c(Cl)c3)CC2)nc2c1CCCC2` [compound 1867], the figure is 3 (Class 3 The value of percent of control at 10^−7 M was more than 60% or the value of IC50 was more than 200 nM.).
